Results from the Deep4Chem optical property database.
Blank lines part the entries; values can stand above or below the compound they belong to.

Assay: solvent given as SMILES

SMILES: COc1ccc(/C=C/C2=CC(/C=C/c3ccc(OC)cc3)=[O+][B-](F)(F)O2)cc1
fluorescence lifetime (in CC#N): 1.55 ns
fluorescence lifetime (in CC(C)=O): 1.49 ns
fluorescence lifetime (in CCOC(C)=O): 0.88 ns
fluorescence lifetime (in CCOCC): 0.7 ns
fluorescence lifetime (in ClC(Cl)(Cl)Cl): 0.5 ns
fluorescence lifetime (in ClCCl): 1.3 ns

SMILES: COc1ccc(C#Cc2c3cc4ccccc4cc3c(C#Cc3ccc(OC)cc3)c3cc4ccccc4cc23)cc1
fluorescence lifetime (in ClCCl): 4.6 ns

SMILES: CC1(C)C(/C=C/C2=C(Oc3ccc(CCN=C=S)cc3)C(=C/C=C3/N(CCCS(=O)(=O)[O-])c4ccccc4C3(C)C)/CCC2)=[N+](CCCS(=O)(=O)[O-])c2ccccc21
fluorescence lifetime (in CO): 0.873 ns

SMILES: O=S(=O)(c1ccc(N2c3ccccc3N(c3ccccc3)c3ccccc32)cc1)c1ccc(N2c3ccccc3N(c3ccccc3)c3ccccc32)cc1
fluorescence lifetime (in Cc1ccccc1): 5.6 ns
fluorescence lifetime (in c1cc(-n2c3ccccc3c3ccccc32)cc(-n2c3ccccc3c3ccccc32)c1): 10 ns

SMILES: CC1(C)CC(/C=C/c2ccc(N3CCOCCOCCOCCOCC3)cc2)=CC(=C(C#N)C#N)C1
fluorescence lifetime (in CCO): 0.79 ns

SMILES: CC(C)(C)c1ccc2c(c1)c1cc(C(C)(C)C)ccc1n2-c1ccc(C#Cc2ccccc2)cc1
fluorescence lifetime (in CC#N): 4.75 ns
fluorescence lifetime (in CCCCC): 2.07 ns
fluorescence lifetime (in CO): 4.99 ns
fluorescence lifetime (in Cc1ccccc1): 1.77 ns
fluorescence lifetime (in ClC(Cl)Cl): 2.39 ns
fluorescence lifetime (in ClCCl): 3.91 ns

SMILES: CCC1(CC)c2ccccc2-c2c1c1c(c3c2C(CC)(CC)c2cc(B(c4c(C)cc(C)cc4C)c4c(C)cc(C)cc4C)ccc2-3)C(CC)(CC)c2ccccc2-1
fluorescence lifetime (in C1CCOC1): 3.2 ns

SMILES: CCCCCCOc1ccc(/C=C/c2ccc(N(c3ccc(/C=C/c4ccc(OCCCCCC)cc4)cc3)c3ccc(-c4nc5ccccc5nc4-c4ccc(N(c5ccc(/C=C/c6ccc(OCCCCCC)cc6)cc5)c5ccc(/C=C/c6ccc(OCCCCCC)cc6)cc5)cc4)cc3)cc2)cc1
fluorescence lifetime (in C1CCOC1): 2.05 ns

SMILES: N#C/C=C/c1ccc2ccc3cccc4ccc1c2c34
fluorescence lifetime (in C1CCOC1): 3.2 ns
fluorescence lifetime (in CC#N): 3 ns
fluorescence lifetime (in CC(C)=O): 3.1 ns

SMILES: CCCCCCN(CCCCCC)c1ccc(C#Cc2ccc(C#N)cc2)cc1
fluorescence lifetime (in CC#N): 1 ns
fluorescence lifetime (in CO): 1 ns
fluorescence lifetime (in ClCCl): 2.8 ns

SMILES: Cc1cc(C)c(C2=[N+]3C(=Cc4c(C)cc(C)n4[B-]3(F)F)c3ccccc32)[nH]1
fluorescence lifetime (in C1CCOC1): 3.75 ns
fluorescence lifetime (in CC#N): 4.34 ns
fluorescence lifetime (in CCCCCC): 7.17 ns
fluorescence lifetime (in CO): 4.98 ns
fluorescence lifetime (in Cc1ccccc1): 6.14 ns
fluorescence lifetime (in ClCCl): 6.4 ns

Continued, values first:

fluorescence lifetime (in CC#N): 1.8 ns
SMILES: Cc1cccc2c1nc1c(=O)n(C)c(=O)nc-1n2C

fluorescence lifetime (in CC#N): 2.75 ns
SMILES: COc1ccc2cc(/C=C/c3ccccc3)c(=O)oc2c1

fluorescence lifetime (in ClCCl): 3.6 ns
SMILES: Cc1ccc(C(=O)c2c(C)c3ccc4cccc5c6cccc7ccc2c(c76)c3c45)cc1

fluorescence lifetime (in CC#N): 2.14 ns
SMILES: COc1ccc(C#Cc2ccccc2C#Cc2ccc(OC)cc2)cc1

fluorescence lifetime (in CC#N): 1.09 ns
fluorescence lifetime (in CCCCCC): 0.4 ns
SMILES: C(=C\c1ccc2ccccc2c1)/c1ccc(N(c2ccccc2)c2ccccc2)cc1

fluorescence lifetime (in ClC(Cl)Cl): 1.69 ns
SMILES: CC(C)(C)c1ccc(C2=c3sc(-c4ccc(C(C)(C)C)cc4)cc3=[N+]3C2=Nc2c(-c4ccc(C(C)(C)C)cc4)c4sc(-c5ccc(C(C)(C)C)cc5)cc4n2[B-]3(F)F)cc1

fluorescence lifetime (in ClC(Cl)Cl): 2.64 ns
SMILES: N#Cc1ccc(C#Cc2ccccc2C#N)cc1

fluorescence lifetime (in CC#N): 5.22 ns
fluorescence lifetime (in CO): 5.23 ns
fluorescence lifetime (in O): 5.38 ns
SMILES: N#Cc1cc(-c2ccc(F)cc2)cnc1O

fluorescence lifetime (in C1CCCCC1): 0.117 ns
fluorescence lifetime (in CC#N): 0.057 ns
fluorescence lifetime (in CCO): 0.065 ns
fluorescence lifetime (in CCOC(C)=O): 0.069 ns
fluorescence lifetime (in CO): 0.057 ns
fluorescence lifetime (in OCC(F)(F)F): 0.072 ns
SMILES: Cc1ccc(C2=C3C=C(I)C=[N+]3[B-](F)(F)n3cc(I)cc32)cc1

fluorescence lifetime (in CO): 0.2 ns
fluorescence lifetime (in ClC(Cl)Cl): 1.05 ns
SMILES: CN1C(=CC2=C([O-])C(=CC3=[N+](C)c4ccccc4C3(C)C)C2=O)C(C)(C)c2cc(Cl)ccc21

fluorescence lifetime (in ClCCl): 1.01 ns
SMILES: CN(C)c1ccc(-c2cc3c(s2)c(C(=O)c2ccccc2)cc(=O)n3Cc2ccccc2)cc1

fluorescence lifetime (in CCCO): 2.6 ns
SMILES: CCOC(=O)c1ccc2c(c1)[nH]c1c3ccc(C(=O)OCC)cc3sc21

fluorescence lifetime (in C1CCOC1): 0.21 ns
SMILES: CN(C)c1ccc(C2=Nc3scc(-c4ccc(N(C)C)cc4)[n+]3[B-](F)(F)O2)cc1

fluorescence lifetime (in ClC(Cl)Cl): 0.958 ns
SMILES: COc1ccc(C2=Cc3c4ccccc4cc[n+]3[B-](F)(F)O2)cc1
